# Measured values reported in ChEMBL document CHEMBL3885881, “DrugMatrix”.
# Organism: Rattus norvegicus
# Test: DrugMatrix - Regimen: Daily Repeat
# Assay type: toxicity, organism-based, Sprague-Dawley
# Design: regimen Daily Repeat, gender Male, age 6-8 weeks
# Conditions: in vivo, po, route oral GAVAGE, […]; for ABSOLUTE BASOPHIL / ABSOLUTE EOSINOPHIL / ABSOLUTE LYMPHOCYTE / ABSOLUTE MONOCYTE / ABSOLUTE SEGMENTED NEUTROPHIL / BASOPHIL / EOSINOPHIL / ERYTHROCYTE COUNT / HEMATOCRIT / HEMOGLOBIN / LEUKOCYTE COUNT / LYMPHOCYTE / MEAN CORPUSCULAR HEMOGLOBIN / MEAN CORPUSCULAR HEMOGLOBIN CONCENTRATION / MEAN CORPUSCULAR VOLUME / MONOCYTE / NEUTROPHIL / NUCLEATED RED BLOOD CELLS / PLATELET COUNT: tissue Blood; for ALANINE AMINOTRANSFERASE / ALBUMIN / ALKALINE PHOSPHATASE / ASPARTATE AMINOTRANSFERASE / BLOOD UREA NITROGEN / CARBON DIOXIDE / CHLORIDE / CHOLESTEROL / CREATINE PHOSPHOKINASE / CREATININE / GLUCOSE / LACTATE DEHYDROGENASE / LIPASE / PHOSPHORUS / POTASSIUM / SODIUM / TOTAL BILIRUBIN / TOTAL PROTEIN / URIC ACID: tissue Plasma
# [1] = 2 mg/kg, 120 h, dose level High, time 5 day
# [2] = 72 h, dose 0.58 mg/Kg, dose level Low, time 3 day
# [3] = 120 h, dose 0.58 mg/Kg, dose level Low, time 5 day
compound,measurement,setting,value
COc1ccc2c(c1)c(CC(=O)OCC(=O)O)c(C)n2C(=O)c1ccc(Cl)cc1 [ACEMETACIN],ABSOLUTE BASOPHIL,[1],0 CELLS/uL
same,ABSOLUTE EOSINOPHIL,[1],198 CELLS/uL
same,ABSOLUTE LYMPHOCYTE,[1],16941.67 CELLS/uL
same,ABSOLUTE MONOCYTE,[1],330.33 CELLS/uL
same,ABSOLUTE SEGMENTED NEUTROPHIL,[1],2163.33 CELLS/uL
same,BASOPHIL,[1],0%
same,EOSINOPHIL,[1],1%
same,ERYTHROCYTE COUNT,[1],6.35 x10E6/uL
same,HEMATOCRIT,[1],38.5%
same,HEMOGLOBIN,[1],14.23 G/DL
same,LEUKOCYTE COUNT,[1],19.63 x10E3/uL
same,LYMPHOCYTE,[1],86.33%
same,MEAN CORPUSCULAR HEMOGLOBIN,[1],22.47 pg
same,MEAN CORPUSCULAR HEMOGLOBIN CONCENTRATION,[1],36.97 G/DL
same,MEAN CORPUSCULAR VOLUME,[1],60.67 fL
same,MONOCYTE,[1],1.67%
same,NEUTROPHIL,[1],11%
same,NUCLEATED RED BLOOD CELLS,[1],0 /100WBC
same,PLATELET COUNT,[1],1196 x10E3/uL
same,ALANINE AMINOTRANSFERASE,[1],77 u/L
same,ALBUMIN,[1],4.33 G/DL
same,ALKALINE PHOSPHATASE,[1],434 u/L
same,ASPARTATE AMINOTRANSFERASE,[1],106.33 u/L
same,BLOOD UREA NITROGEN,[1],15.33 mg/dL
same,CARBON DIOXIDE,[1],26 mmol/L
same,CHLORIDE,[1],102 MEQ/L
same,CHOLESTEROL,[1],58 mg/dL
same,CREATINE PHOSPHOKINASE,[1],673.33 u/L
same,CREATININE,[1],0.19 mg/dL
same,GLUCOSE,[1],155.33 mg/dL
same,LACTATE DEHYDROGENASE,[1],783.33 u/L
same,LIPASE,[1],10 u/L
same,PHOSPHORUS,[1],11.9 mg/dL
same,POTASSIUM,[1],6.17 MEQ/L
same,SODIUM,[1],143.57 MEQ/L
same,TOTAL BILIRUBIN,[1],0.2 mg/dL
same,TOTAL PROTEIN,[1],5.87 G/DL
same,URIC ACID,[1],1.93 mg/dL
same,ABSOLUTE BASOPHIL,[2],0 CELLS/uL
same,ABSOLUTE EOSINOPHIL,[2],126 CELLS/uL
same,ABSOLUTE LYMPHOCYTE,[2],13647.33 CELLS/uL
same,ABSOLUTE MONOCYTE,[2],360 CELLS/uL
same,ABSOLUTE SEGMENTED NEUTROPHIL,[2],1833.33 CELLS/uL
same,BASOPHIL,[2],0%
same,EOSINOPHIL,[2],0.67%
same,ERYTHROCYTE COUNT,[2],5.77 x10E6/uL
same,HEMATOCRIT,[2],35.7%
same,HEMOGLOBIN,[2],13.3 G/DL
same,LEUKOCYTE COUNT,[2],15.97 x10E3/uL
same,LYMPHOCYTE,[2],85.67%
same,MEAN CORPUSCULAR HEMOGLOBIN,[2],23.07 pg
same,MEAN CORPUSCULAR HEMOGLOBIN CONCENTRATION,[2],37.23 G/DL
same,MEAN CORPUSCULAR VOLUME,[2],61.97 fL
same,MONOCYTE,[2],2.33%
same,NEUTROPHIL,[2],11.33%
same,NUCLEATED RED BLOOD CELLS,[2],0 /100WBC
same,PLATELET COUNT,[2],1055 x10E3/uL
same,ALANINE AMINOTRANSFERASE,[2],66 u/L
same,ALBUMIN,[2],3.93 G/DL
same,ALKALINE PHOSPHATASE,[2],319 u/L
same,ASPARTATE AMINOTRANSFERASE,[2],94 u/L
same,BLOOD UREA NITROGEN,[2],16.33 mg/dL
same,CARBON DIOXIDE,[2],27 mmol/L
same,CHLORIDE,[2],102.33 MEQ/L
same,CHOLESTEROL,[2],67.33 mg/dL
same,CREATINE PHOSPHOKINASE,[2],359 u/L
same,CREATININE,[2],0.19 mg/dL
same,GLUCOSE,[2],160.33 mg/dL
same,LACTATE DEHYDROGENASE,[2],379.33 u/L
same,LIPASE,[2],9.67 u/L
same,PHOSPHORUS,[2],11.53 mg/dL
same,POTASSIUM,[2],6.9 MEQ/L
same,SODIUM,[2],144.43 MEQ/L
same,TOTAL BILIRUBIN,[2],0.2 mg/dL
same,TOTAL PROTEIN,[2],5.37 G/DL
same,URIC ACID,[2],1.47 mg/dL
same,ABSOLUTE BASOPHIL,[3],0 CELLS/uL
same,ABSOLUTE EOSINOPHIL,[3],113 CELLS/uL
same,ABSOLUTE LYMPHOCYTE,[3],13989.33 CELLS/uL
same,ABSOLUTE MONOCYTE,[3],257.33 CELLS/uL
same,ABSOLUTE SEGMENTED NEUTROPHIL,[3],2073.67 CELLS/uL
same,BASOPHIL,[3],0%
same,EOSINOPHIL,[3],0.67%
same,ERYTHROCYTE COUNT,[3],6.2 x10E6/uL
same,HEMATOCRIT,[3],37.73%
same,HEMOGLOBIN,[3],13.77 G/DL
same,LEUKOCYTE COUNT,[3],16.43 x10E3/uL
same,LYMPHOCYTE,[3],85.33%
same,MEAN CORPUSCULAR HEMOGLOBIN,[3],22.23 pg
same,MEAN CORPUSCULAR HEMOGLOBIN CONCENTRATION,[3],36.53 G/DL
same,MEAN CORPUSCULAR VOLUME,[3],60.93 fL
same,MONOCYTE,[3],1.67%
same,NEUTROPHIL,[3],12.33%
same,NUCLEATED RED BLOOD CELLS,[3],0 /100WBC
same,PLATELET COUNT,[3],1216 x10E3/uL
same,ALANINE AMINOTRANSFERASE,[3],65.33 u/L
same,ALBUMIN,[3],4.53 G/DL
same,ALKALINE PHOSPHATASE,[3],452 u/L
same,ASPARTATE AMINOTRANSFERASE,[3],90.33 u/L
same,BLOOD UREA NITROGEN,[3],19.67 mg/dL
same,CARBON DIOXIDE,[3],26.67 mmol/L
same,CHLORIDE,[3],105 MEQ/L
same,CHOLESTEROL,[3],58.33 mg/dL
same,CREATINE PHOSPHOKINASE,[3],293.67 u/L
same,CREATININE,[3],0.22 mg/dL
same,GLUCOSE,[3],163.33 mg/dL
same,LACTATE DEHYDROGENASE,[3],355 u/L
same,LIPASE,[3],9 u/L
same,PHOSPHORUS,[3],11.6 mg/dL
same,POTASSIUM,[3],6.5 MEQ/L
same,SODIUM,[3],145.13 MEQ/L
same,TOTAL BILIRUBIN,[3],0.13 mg/dL
same,TOTAL PROTEIN,[3],6.27 G/DL
same,URIC ACID,[3],1.97 mg/dL
